Data published in patent US6274715A, “Tricyclic erythromycin derivatives” (priority 1997, dated 2001).
Converted amounts (≈) assume the structure as drawn.

Key:
Type in all cases: cell-based
[1] = test system: PSEUDOMONAS AERUGINOSA BMH10; assay: In vitro antibacterial activity, MIC, BHI agar dilution; details: P. aeruginosa BMH10, unit assumed
[2] = test system: STREPTOCOCCUS PYOGENES 930; assay: as above; details: S. pyogenes 930, unit assumed
[3] = test system: PROVIDENCIA STUARTII CMX 640; details: P. stuartii CMX 640; BHI agar; unit assumed
[4] = test system: STAPHYLOCOCCUS AUREUS 1775; assay: In vitro antibacterial activity, MIC, BHI agar dilution; details: S. aureus 1775, unit assumed
[5] = test system: MYCOBACTERIUM SMEGMATIS ATCC 114; assay: as above; details: M. smegmatis ATCC 114, unit assumed
PSEUDOMONAS CEPACIA 296I = assay: as above; details: P. cepacia 296I, unit assumed
ESCHERICHIA COLI KNK 437 = details: E. coli KNK 437; BHI agar; unit assumed
[6] = test system: PSEUDOMONAS AERUGINOSA 5007; assay: In vitro antibacterial activity, MIC, BHI agar dilution; details: P. aeruginosa 5007, unit assumed
[7] = test system: STREPTOCOCCUS PYOGENES EES61; assay: as above; details: S. pyogenes EES61, unit assumed
[8] = test system: STREPTOCOCCUS BOVIS A-5169; assay: as above; details: S. bovis A-5169, unit assumed
[9] = test system: STREPTOCOCCUS PYOGENES PIU 2548; assay: as above; details: S. pyogenes PIU 2548, unit assumed
[10] = test system: STAPHYLOCOCCUS AUREUS CMX 642A; assay: as above; details: S. aureus CMX 642A, unit assumed
[11] = test system: STAPHYLOCOCCUS EPIDERMIDIS 3519; details: S. epidermidis 3519; BHI agar; unit assumed
[12] = test system: ENTEROBACTER AEROGENES ATCC 13048; assay: In vitro antibacterial activity, MIC, BHI agar dilution; details: E. aerogenes ATCC 13048, unit assumed
[13] = test system: STAPHYLOCOCCUS AUREUS ATCC 6538P; assay: as above; details: S. aureus ATCC 6538P, 35-37° C., 20 to 24 hours, unit assumed
[14] = test system: STAPHYLOCOCCUS AUREUS CMX 553; assay: as above; details: S. aureus CMX 553, unit assumed
[15] = test system: KLEBSIELLA PNEUMONIAE ATCC 8045; assay: as above; details: K. pneumoniae ATCC 8045, unit assumed
STR[…] 508 = assay: as above; details: S. agalactiae CMX 508, unit assumed
Procedure, shortened: (§1)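 Agar dilution in BHI: plates inoculated with 1:100 dilutions of organisms (1:10 for Micrococcus and Streptococcus), incubated 20-24 h at 35-37° C, then inspected for the lowest inhibitory concentration against a drug-free growth control.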

EN[…] ATCC 8043 = assay: as above; details: E. faecium ATCC 8043, unit assumed
Procedure, shortened: as §1

M[…] ATCC 4698 = assay: as above; details: M. luteus ATCC 4698, unit assumed
Procedure, shortened: as §1

M[…] ATCC 9341 = assay: as above; details: M. luteus ATCC 9341, unit assumed
Procedure, shortened: as §1

[16] = test system: PSEUDOMONAS AERUGINOSA K799/61; assay: as above; details: P. aeruginosa K799/61, unit assumed
ESCHERICHIA COLI DC-2 = assay: as above; details: E. coli DC-2, unit assumed
ESCHERICHIA COLI H560 = assay: as above; details: E. coli H560, unit assumed
CANDIDA ALBICANS CCH 442 = assay: as above; details: C. albicans CCH 442, unit assumed
[17] = test system: PSEUDOMONAS AERUGINOSA DPHD-5263; assay: as above; details: P. aeruginosa DPHD-5263, unit assumed
[18] = test system: STAPHYLOCOCCUS AUREUS A5177; assay: as above; details: S. aureus A5177, unit assumed
ESCHERICHIA COLI JUHL = details: E. coli JUHL; BHI agar; unit assumed
[19] = test system: PSEUDOMONAS AERUGINOSA K799/WT; assay: In vitro antibacterial activity, MIC, BHI agar dilution; details: P. aeruginosa K799/WT, unit assumed
[20] = test system: STAPHYLOCOCCUS AUREUS NCTC10649M; assay: as above; details: S. aureus NCTC10649M, unit assumed
[21] = test system: PSEUDOMONAS AERUGINOSA DPHD-2862; assay: as above; details: P. aeruginosa DPHD-2862, unit assumed
[22] = test system: STAPHYLOCOCCUS AUREUS A-5278; assay: as above; details: S. aureus A-5278, unit assumed
ESCHERICHIA COLI SS = assay: as above; details: E. coli SS, unit assumed

SMILES | MIC [1] | MIC [2] | MIC [3] | MIC [4] | MIC [5] | MIC (PSEUDOMONAS CEPACIA 296I) | MIC (ESCHERICHIA COLI KNK 437) | MIC [6] | MIC [7] | MIC [8] | MIC [9] | MIC [10] | MIC [11] | MIC [12] | MIC [13] | MIC [14] | MIC [15] | MIC (STR[…] 508) | MIC (EN[…] ATCC 8043) | MIC (M[…] ATCC 4698) | further results
CC[C@H]1OC(=O)[C@H](C)C(=O)[C@H](C)[C@@H](O[C@@H]2O[C@H](C)C[C@H](N(C)C)[C@H]2O)[C@](C)(OC)C[C@@H](C)C2=NCC(COC(=O)c3ccc4ccccc4n3)N3C(=O)O[C@@]1(C)[C@H]3[C@H]2C (stereo partly drawn) [Example 142] | > 100 µg/mL | > 100 µg/mL | > 100 µg/mL | > 100 µg/mL | 1.56 µg/mL (≈ 1.9 µM) | > 100 µg/mL | 100 µg/mL (≈ 122 µM) | > 100 µg/mL | 0.01 µg/mL (≈ 0.0122 µM) | 0.01 µg/mL (≈ 0.0122 µM) | 0.39 µg/mL (≈ 0.474 µM) | 0.2 µg/mL (≈ 0.243 µM) | 0.2 µg/mL (≈ 0.243 µM) | > 100 µg/mL | 0.2 µg/mL (≈ 0.243 µM) | 0.2 µg/mL (≈ 0.243 µM) | > 100 µg/mL | 0.01 µg/mL (≈ 0.0122 µM) | 0.1 µg/mL (≈ 0.122 µM) | 0.1 µg/mL (≈ 0.122 µM) | MIC (M[…] ATCC 9341): 0.02 µg/mL (≈ 0.0243 µM); MIC [16]: 1.56 µg/mL (≈ 1.9 µM); MIC (ESCHERICHIA COLI DC-2): 25 µg/mL (≈ 30.4 µM); MIC (ESCHERICHIA COLI H560): 25 µg/mL (≈ 30.4 µM); MIC (CANDIDA ALBICANS CCH 442): > 100 µg/mL; MIC [17]: > 100 µg/mL; MIC [18]: 0.2 µg/mL (≈ 0.243 µM); MIC (ESCHERICHIA COLI JUHL): 50 µg/mL (≈ 60.8 µM); MIC [19]: > 100 µg/mL; MIC [20]: 0.2 µg/mL (≈ 0.243 µM); MIC [21]: > 100 µg/mL; MIC [22]: > 100 µg/mL; MIC (ESCHERICHIA COLI SS): 1.56 µg/mL (≈ 1.9 µM)
CC[C@H]1OC(=O)[C@H](C)C(=O)[C@H](C)[C@@H](O[C@@H]2O[C@H](C)C[C@H](N(C)C)[C@H]2O)[C@](C)(OC)C[C@@H](C)C2=NCC(COC(=O)c3cc4ccccc4n3C)N3C(=O)O[C@@]1(C)[C@H]3[C@H]2C (stereo partly drawn) [Example 143] | > 100 µg/mL | 50 µg/mL (≈ 60.6 µM) | > 100 µg/mL | 50 µg/mL (≈ 60.6 µM) | 0.2 µg/mL (≈ 0.242 µM) | 50 µg/mL (≈ 60.6 µM) | 50 µg/mL (≈ 60.6 µM) | > 100 µg/mL | 0.02 µg/mL (≈ 0.0242 µM) | 0.01 µg/mL (≈ 0.0121 µM) | 0.39 µg/mL (≈ 0.473 µM) | 0.2 µg/mL (≈ 0.242 µM) | 0.2 µg/mL (≈ 0.242 µM) | > 100 µg/mL | 0.1 µg/mL (≈ 0.121 µM) | 0.2 µg/mL (≈ 0.242 µM) | > 100 µg/mL | 0.02 µg/mL (≈ 0.0242 µM) | 0.02 µg/mL (≈ 0.0242 µM) | 0.2 µg/mL (≈ 0.242 µM) | MIC (M[…] ATCC 9341): 0.01 µg/mL (≈ 0.0121 µM); MIC [16]: 1.56 µg/mL (≈ 1.89 µM); MIC (ESCHERICHIA COLI DC-2): 50 µg/mL (≈ 60.6 µM); MIC (ESCHERICHIA COLI H560): 25 µg/mL (≈ 30.3 µM); MIC (CANDIDA ALBICANS CCH 442): 100 µg/mL (≈ 121 µM); MIC [17]: > 100 µg/mL; MIC [18]: 0.2 µg/mL (≈ 0.242 µM); MIC (ESCHERICHIA COLI JUHL): 50 µg/mL (≈ 60.6 µM); MIC [19]: > 100 µg/mL; MIC [20]: 0.2 µg/mL (≈ 0.242 µM); MIC [21]: > 100 µg/mL; MIC [22]: 50 µg/mL (≈ 60.6 µM); MIC (ESCHERICHIA COLI SS): 0.78 µg/mL (≈ 0.945 µM)
CC[C@H]1OC(=O)[C@H](C)C(=O)[C@H](C)[C@@H](O[C@@H]2O[C@H](C)C[C@H](N(C)C)[C@H]2O)[C@](C)(OC)C[C@@H](C)C2=NCC(COC(=O)c3cccc4[nH]ccc34)N3C(=O)O[C@@]1(C)[C@H]3[C@H]2C (stereo partly drawn) [Example 144] | > 100 µg/mL | 100 µg/mL (≈ 123 µM) | > 100 µg/mL | > 100 µg/mL | 1.56 µg/mL (≈ 1.92 µM) | 50 µg/mL (≈ 61.7 µM) | 50 µg/mL (≈ 61.7 µM) | > 100 µg/mL | ≤ 0.005 µg/mL | ≤ 0.005 µg/mL | 0.39 µg/mL (≈ 0.481 µM) | 0.1 µg/mL (≈ 0.123 µM) | 0.1 µg/mL (≈ 0.123 µM) | 100 µg/mL (≈ 123 µM) | 0.1 µg/mL (≈ 0.123 µM) | 0.1 µg/mL (≈ 0.123 µM) | 100 µg/mL (≈ 123 µM) | ≤ 0.005 µg/mL | 0.1 µg/mL (≈ 0.123 µM) | 0.1 µg/mL (≈ 0.123 µM) | MIC (M[…] ATCC 9341): 0.01 µg/mL (≈ 0.0123 µM); MIC [16]: 0.78 µg/mL (≈ 0.962 µM); MIC (ESCHERICHIA COLI DC-2): 50 µg/mL (≈ 61.7 µM); MIC (ESCHERICHIA COLI H560): 50 µg/mL (≈ 61.7 µM); MIC (CANDIDA ALBICANS CCH 442): > 100 µg/mL; MIC [17]: > 100 µg/mL; MIC [18]: 0.1 µg/mL (≈ 0.123 µM); MIC (ESCHERICHIA COLI JUHL): 50 µg/mL (≈ 61.7 µM); MIC [19]: > 100 µg/mL; MIC [20]: 0.1 µg/mL (≈ 0.123 µM); MIC [21]: > 100 µg/mL; MIC [22]: > 100 µg/mL; MIC (ESCHERICHIA COLI SS): 0.78 µg/mL (≈ 0.962 µM)
